Source: PMC6694107, “Characterization and overproduction of cell-associated cholesterol oxidase ChoD from Streptomyces lavendulae YAKB-15” (Scientific Reports, 2019)

Tested on: T1, ChoD
T1 construct: ORF 547 aa including TAT signal; FAD enzyme
Experiment: ABTS/peroxidase coupled H2O2 assay, […] nm, initial rates
Format: biochemical, Streptomyces lavendulae
Conditions: pH 7 sodium-potassium phosphate, Triton X-100, ethanol (general assay); 8.4 nM enzyme, 4-168 µM cholesterol

CC(C)CCC[C@@H](C)[C@H]1CC[C@H]2[C@@H]3CC=C4C[C@@H](O)CC[C@]4(C)[C@H]3CC[C@]12C [cholesterol] showed a Km of 15.9 µM.
